Values of other authors, collected in patent US20100291221A1, “Method of administering dose-sparing amounts of formoterol fumarate-budesonide combination particles by inhalation” (priority 2009, published 2010).

Assays:
adult asthmatics = conditions: inhaled
[1] = 9 ug Formoterol Fumarate alone (2 puffs); first treatment day

COc1ccc(C[C@@H](C)NC[C@H](O)c2ccc(O)c(NC=O)c2)cc1.COc1ccc(C[C@@H](C)NC[C@H](O)c2ccc(O)c(NC=O)c2)cc1.O=C(O)/C=C/C(=O)O [Formoterol Fumarate, formoterol fumarate]
Minimum efficacy dose (adult asthmatics; adult asthmatics): approximately 4 micrograms | Level at which systemic b2 agonist effects begin to occur (adult asthmatics): above 12 micrograms | Change in FEV1 at 15 minutes [1]: 11% | Change in FEV1 at 120 minutes [1]: 18%
